One data set has as its system LnCAP. Description: MTT cytotoxicity, LnCAP. The data set is classed as cell-based. The note with it: Homo sapiens, Prostatic, 72 hrs, read-out: LC50 (the source's name). As to the method:
(§1) The cytotoxicity of ZTP and ZTQ was analyzed by using human tumor cell lines. Human tumor cell lines were purchased from ATCC and NCI, and cultured in DMEM medium containing 10% FBS at 37° C. in 5% CO2 in an incubator. The cells grown to confluence were used for cytotoxicity analysis. The cells were digested with trypsin, washed with the culture medium, and then counted. 33 tumor cell lines were cultured. The cells were seeded at a density of 3000-6000 cells/well in a 96-well plate and incubated for 16-24 hrs. Then, various concentrations of ZTP or ZTQ dissolved in DMSO were added, and cultured for 72 hrs. The drug-treated cells and control cells were analyzed by MTT.

The next data set deals with PC3. Description: MTT cytotoxicity, PC3. Format: cell-based. The note with it: Homo sapiens, PC-3, PC3, Prostatic, 72 hrs, read-out: LC50 (the source's name). As to the method: as §1
Another data set relates to HCT-116. Description: MTT cytotoxicity, HCT-116. Format: cell-based. The note with it: Homo sapiens, HCT-116, Colonic, 72 hrs, read-out: LC50 (the source's name). As to the method: as §1
Another data set relates to NCI-H23. In words: MTT cytotoxicity, NCI-H23. The data set is classed as cell-based. The note with it: Homo sapiens, NCI-H23, Lung, 72 hrs, read-out: LC50 (the source's name). As to the method:
as §1

The next data set relates to 786-O. Description: MTT cytotoxicity, 786-O. The data set is classed as cell-based. As to conditions: Homo sapiens, 786-0, Renal, 72 hrs, read-out: LC50 (the source's name). As to the method: as §1
The next data set concerns SN12C. In words: MTT cytotoxicity, SN12C. Format: cell-based. As to conditions: Homo sapiens, Renal, 72 hrs, read-out: LC50 (the source's name). As to the method:
as §1

The subject of the next data set is U-251. In words: MTT cytotoxicity, U-251. Format: cell-based. The note with it: Homo sapiens, U-251, Glioblastoma, 72 hrs, read-out: LC50 (the source's name). As to the method:
as §1

Another data set deals with G-361. In words: MTT cytotoxicity, G-361. The note with it: Homo sapiens, G-361, Skin (melanoma), 72 hrs, read-out: LC50 (the source's name). The data set is classed as cell-based. As to the method: as §1
In a further data set the test system is EC109. In words: MTT cytotoxicity, EC109. The data set is classed as cell-based. As to conditions: Homo sapiens, ECa-109, EC109, Esophageal, 72 hrs, read-out: LC50 (the source's name). As to the method:
as §1

In a further data set the test system is HepG3B. Description: MTT cytotoxicity, HepG3B. The data set is classed as cell-based. As to conditions: Homo sapiens, Liver, 72 hrs, read-out: LC50 (the source's name). As to the method:
as §1

Data set [1] in a line: MTT cytotoxicity, MEF normal mouse fibroblast. The data set is classed as cell-based. The note with it: MEF normal mouse fibroblasts; MEF, Normal mouse fibroblast; 72 hrs, MTT; read-out: LC50. As to the method: [Worded in the source for another organism; this organism is reported under the same test.] as §1
The next data set concerns MEF. In words: MTT cytotoxicity, MEF normal mouse fibroblast. Format: cell-based. The note with it: cells still grow well at a concentration up to 30 μm. As to the method: [Worded in the source for another organism; this organism is reported under the same test.] as §1
Data set [2] is described as follows: Side effects in tumor transplanted nude mice. The note with it: during treatment. Format: in vivo, nude mice (nu/nu). As to the method: T-cell deficient nude mice (nu/nu) of 6 weeks old were purchased from Charles River Laboratory, and housed and treated in a sterile environment following Institutional Animal Care & Use Committee Program. 48 mice were respectively subcutaneously inoculated on ribbed belly with 5×10^6 human liver cancer cells (HepG3B), human lung caner cells (NCI-H23), and human colon cancer cells (HCT-116) suspended in 0.2 ml HBSS/matrigel (50:50, V/V). When the tumor grew to have an average diameter of 7-8 mm and a volume of about 100-200 mm^3, 24 mice were picked up, and assigned to treatment groups (16 animals/2 groups), and a control group (8 animals). The 2 treatment groups were administered with the compounds ZTP and ZTQ dissolved in 15% Captsol respectively at a dose of 30 mg/kg and 60 mg/kg, and the control group only received an excipient (15% Captsol).
The dose schedule of the test compounds in the tumor transplanted nude mice was as follows: the compounds ZTP and ZTQ dissolved in 15% Captsol were daily orally administered as a 200 μl solution containing 0.75 mg of ZTP and 1.5 mg of ZTQ for 5 days/week over 3 consecutive weeks, followed by one-week break; and the control group was only administered with 200 μl of the placebo (15% Captsol) for 3 weeks, followed by 1 week of break. The two groups of animals were housed separately, and allowed to free access to food.

Take `CNC(=O)c1cc(Sc2ccc(NC(=S)Nc3ccc(Cl)c(C(F)(F)F)c3)cc2)ccn1` [ZTQ, N-[4-chloro-3-(trifluoromethyl)phenyl]-[4-(N-methyl-formamide)(4-pyridylthio)phenyl]-thiourea]: the CC50 came out at 820 nM with LnCAP; 1050 nM in the data set with PC3; 760 nM in the data set on HCT-116; 710 nM in the data set with NCI-H23; 1260 nM with 786-O; 2200 nM in the data set with SN12C. For the same compound, the CC50 in the data set with U-251 came to 2500 nM; in the data set on G-361, 1360 nM; with EC109, 1120 nM; with HepG3B, 1230 nM. In [1], the CC50 at 72 h is greater than 30000 nM. The “susceptibility of normal mouse fibroblasts (MEFs)” value in the data set on MEF is “insusceptible”. Further, the “side effect, including the change in body weight” value in [2] is given as “no obvious side effect”.

As for `CNC(=O)c1cc(Oc2ccc(NC(=S)Nc3ccc(Cl)c(C(F)(F)F)c3)cc2)ccn1` [ZTP, N-[4-chloro-3-(trifluoromethyl)phenyl]-[4-(N-methyl-formamide)(4-pyridyloxy)phenyl]-thiourea], the CC50 came to 1050 nM with LnCAP; 1310 nM in the data set on PC3; 870 nM in the data set on HCT-116; 890 nM with NCI-H23; 1750 nM in the data set with 786-O; 3210 nM in the data set on SN12C. The CC50 with U-251 was 3670 nM; with G-361 it was 1910 nM; in the data set with EC109 it was 1480 nM; in the data set on HepG3B, 1710 nM. Further, the CC50 at 72 h in [1] is greater than 30000 nM. Besides, the “susceptibility of normal mouse fibroblasts (MEFs)” value with MEF is given as “insusceptible”.

(Values after US20130225641A1, “ANTICANCER COMPOUNDS AND PREPARATION METHODS THEREOF” (priority 2010, published 2013).)
